Data reported in publication PMC9780888, “4-Isobutylmethcathinone—A Novel Synthetic Cathinone with High In Vitro Cytotoxicity and Strong Receptor Binding Preference of Enantiomers” (Pharmaceuticals, 2022).
Where a name gives a salt, the structure may show the parent alone.

Target: T1, dopamine receptor DAR3 (Homo sapiens, UniProt P35462)
T1 construct: host or cells: HTLA (HEK 293-derived)
Test: PRESTO-Tango β-arrestin 2 recruitment assay, DAR3
Type: cell-based
Conditions: for increase in RLU compared to the control: DAR3, 500 nM
From the text: However, binding to a specific receptor/transporter and, thus, the mechanism of action of a given cathinone always depends on the specific structure of the evaluated compound [37]. In this study, the binding activity of IBMcat and its enantiomers was verified by PRESTO-Tango (parallel receptor expression and screening via transcriptional output, with transcriptional activation following arrestin-2 translocation) assay using the HTLA cell line stably producing β-arrestin-2 in a fusion with TEV and luciferase production driven by tTA. For this purpose, the HTLA cells were transiently transfected with plasmid DNA encoding the dopamine receptors type 1-4 (DAR1-4), which also contain the TEV protease cleavage site followed by tTA at the 3’-end (DAR1-Tango, DAR2-Tango, DAR3-Tango, DAR4-Tango). In the case of the receptor activation by a ligand, in transfected cells, the receptor is desensitized by β-arrestin fused to TEV protease. This brings the TEV protease close to the site that specifically cleaves and, thus, the transcription factor can be cleaved. The transcription factor then translocates to the cell nucleus, in which it triggers the transcription of the target gene for luciferase production which can be determined by the light emitted from luciferin conversion to oxyluciferin. Here, the pronounced luminescence was recorded for all DAR1-4 types in HTLA cells treated with IBMCat and its enantiomers (Figure 8).
The HTLA cell line was used for the PRESTO-Tango β-arrestin recruitment assay. […]
The transfected HTLA cells were incubated for 24 h, and then 1 × 10^4 cells were seeded per well of a white 96-well clear bottom plate (Brand, Germany) in 40 μL of DMEM with 1% charcoal-stripped FBS (Thermo Fisher Scientific, USA). […] After 5 min., the luminescence was measured using a multi-mode microplate reader SpectraMax iD5 (Molecular Devices, San Jose, CA, USA) measuring the entire wavelength spectrum. All samples were measured in quadruplicates. The data were evaluated by Prism 7 software (GraphPad, San Jose, CA, USA).

T1 sequence (P35462 whole entry): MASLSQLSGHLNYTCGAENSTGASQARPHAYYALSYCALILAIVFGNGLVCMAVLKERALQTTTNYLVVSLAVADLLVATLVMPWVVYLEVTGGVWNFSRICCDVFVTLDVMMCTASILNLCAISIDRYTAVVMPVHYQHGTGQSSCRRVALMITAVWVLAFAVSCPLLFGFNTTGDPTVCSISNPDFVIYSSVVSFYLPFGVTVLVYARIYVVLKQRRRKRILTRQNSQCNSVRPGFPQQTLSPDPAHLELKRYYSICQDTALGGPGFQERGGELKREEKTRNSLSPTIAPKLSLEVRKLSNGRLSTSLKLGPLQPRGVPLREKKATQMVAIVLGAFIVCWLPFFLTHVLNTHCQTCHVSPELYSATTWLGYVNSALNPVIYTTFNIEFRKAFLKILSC

| SMILES | increase in RLU compared to the control | effect on DAR3-expressing cells (0-500 nM) |
| --- | --- | --- |
| CNC(C)C(=O)c1ccc(CC(C)C)cc1.Cl (stereo not drawn) [IBMcat, 4-isobutylmethcathinone hydrochloride] | 5 fold | – |
| CN[C@H](C)C(=O)c1ccc(CC(C)C)cc1 [R-IBMCat] | – | no effect |
| CN[C@@H](C)C(=O)c1ccc(CC(C)C)cc1 [S-IBMCat, (S)-4-isobutylmethcathinone hydrochloride] | 6.5 fold | – |
